For this assay, the target named is recombinant SARS-CoV-2 Mpro (Severe acute respiratory syndrome coronavirus 2, UniProt P0DTD1). Nature of the assay: SARS-CoV-2 Mpro inhibition assay (FRET-based proteolytic activity assay). The assay is classed as biochemical. Conditions: for Ki: substrate concentration-independent inhibition constant; for inhibitory activity in the in vitro test: at concentrations below 125 μM.

The mark [1] stands for this setting: Ki, 0.2 μM enzyme, 20 μM substrate, compound 125 to 0 μM, 2.5% DMSO.
[2] abbreviates: 0.2 μM enzyme, 20 μM substrate, compound 125 to 0 μM, 2.5% DMSO, read-out: IC50.
[3] abbreviates: 0.2 μM enzyme, 20 μM substrate, compound 125 to 0 μM, 2.5% DMSO, read-out: Ki.

Several values for one entry are separate records, joined by “and”; a condition that tells them apart may be missing. Equal entries are not always repeated. Where two headings read alike, the source gives them in different places. Bounds are passed on as bounds.

The values below come from article PMC9931176, “Discovery of Diverse Natural Products as Inhibitors of SARS-CoV-2 M^pro Protease through Virtual Screening” (Journal of Chemical Information and Modeling, 2021).

In general, IC50 refers to the concentration that gives 50% inhibition. A word on the Ki: it is the equilibrium dissociation constant of an inhibitor or competing ligand from its target.

In the case of `O=C1c2c(O)cccc2C([C@@H]2O[C@H](CO)[C@@H](O)[C@H](O)[C@H]2O)c2cc(CO)cc(O)c21` (some centres unmarked) [aloin], the IC50 stood at 96 µM. Further, the Ki under setting [1] was 82 µM and 34 µM.

As to `O=c1cc(-c2ccc(O)c(-c3c(O)cc(O)c4c(=O)cc(-c5ccc(O)cc5)oc34)c2)oc2cc(O)cc(O)c12` [amentoflavone], the IC50 was 28 µM. The Ki under setting [1] was found to be 10 µM.

Consider `O=C(O[C@@H]1O[C@@H]2COC(=O)c3cc(O)c(O)c(O)c3-c3c(cc(O)c(O)c3O)C(=O)O[C@H]([C@H]1O)[C@@H]2O)c1cc(O)c(O)c(O)c1` [corilagin], for which the IC50 was over 125 µM. Also, under setting [1], the Ki is over 125 µM.

For the compound `COc1ccc(-c2cc(=O)c3c(O)cc(O[C@@H]4O[C@H](CO[C@@H]5O[C@@H](C)[C@H](O)[C@@H](O)[C@H]5O)[C@@H](O)[C@H](O)[C@H]4O)cc3o2)cc1` [linarin], the IC50 was over 125 µM and the “inhibitory activity in the in vitro test” value is recorded as “lack of activity”. For the same compound, the Ki under setting [1] was over 125 µM.

For `O=c1cc(-c2ccc(O)c(O)c2)oc2cc(O[C@@H]3O[C@H](CO)[C@@H](O)[C@H](O)[C@H]3O)cc(O)c12` [luteoloside], the IC50 was over 125 µM. Under setting [1], the Ki was over 125 µM.

For the compound `C[C@@H]1O[C@@H](OC[C@H]2O[C@@H](Oc3cc(O)c4c(c3)O[C@H](c3ccc(O)cc3)CC4=O)[C@H](O)[C@@H](O)[C@@H]2O)[C@H](O)[C@H](O)[C@H]1O` [narirutin], the IC50 is over 125 µM. For the same compound, the Ki under setting [1] was over 125 µM.

For `C[C@@H]1O[C@@H](O[C@H]2[C@H](Oc3cc(O)c4c(=O)cc(-c5ccc(O)cc5)oc4c3)O[C@H](CO)[C@@H](O)[C@@H]2O)[C@H](O)[C@H](O)[C@H]1O` [rhoifolin], the IC50 under setting [2] was found to be 230 µM. The Ki under setting [3] amounted to 82 µM.

`CC1OC(OC2C(c3c(O)cc(O)c4c(=O)cc(-c5ccc(O)cc5)oc34)OC(CO)C(O)C2O)C(O)C(O)C1O` (centres unmarked) [vitexin-2-O-rhamnoside, vitexin-2-O-rhaMnoside]: the IC50 came out at 65 µM. In addition, the Ki under setting [1] came to 23 µM.

Regarding `CC1CCC2(C(=O)OC3OC(CO)C(O)C(O)C3O)CCC3(C)C(=CCC4C5(C)CCC(OC6OCC(O)C(O)C6O)C(C)(C)C5CCC43C)C2C1(C)O` (centres unmarked) [ziyu-glycoside I], the IC50 was over 125 µM and the “inhibitory activity in the in vitro test” value is recorded as “nonactive”. Under setting [1], the Ki was over 125 µM.

On to proanthocyanidins, for which the “inhibitory activity in the in vitro test” value is “nonactive”. In addition, the IC50 under setting [2] was over 125 µM. Moreover, under setting [3], the Ki is over 125 µM.
